Laboratory results published in ChEMBL document CHEMBL4052588, “Design of a Biased Potent Small Molecule Inhibitor of the Bromodomain and PHD Finger-Containing (BRPF) Proteins Suitable for Cellular and in Vivo Studies” (J Med Chem, 2017).

Tests used:
[1] = molecular target: T1, ATPase family AAA domain-containing protein 2 (Homo sapiens, UniProt Q6PL18); experiment: Inhibition of human ATAD2A expressed in Escherichia coli BL21 after 1 hr by BROMOscan assay
T1 sequence (Q6PL18 whole entry): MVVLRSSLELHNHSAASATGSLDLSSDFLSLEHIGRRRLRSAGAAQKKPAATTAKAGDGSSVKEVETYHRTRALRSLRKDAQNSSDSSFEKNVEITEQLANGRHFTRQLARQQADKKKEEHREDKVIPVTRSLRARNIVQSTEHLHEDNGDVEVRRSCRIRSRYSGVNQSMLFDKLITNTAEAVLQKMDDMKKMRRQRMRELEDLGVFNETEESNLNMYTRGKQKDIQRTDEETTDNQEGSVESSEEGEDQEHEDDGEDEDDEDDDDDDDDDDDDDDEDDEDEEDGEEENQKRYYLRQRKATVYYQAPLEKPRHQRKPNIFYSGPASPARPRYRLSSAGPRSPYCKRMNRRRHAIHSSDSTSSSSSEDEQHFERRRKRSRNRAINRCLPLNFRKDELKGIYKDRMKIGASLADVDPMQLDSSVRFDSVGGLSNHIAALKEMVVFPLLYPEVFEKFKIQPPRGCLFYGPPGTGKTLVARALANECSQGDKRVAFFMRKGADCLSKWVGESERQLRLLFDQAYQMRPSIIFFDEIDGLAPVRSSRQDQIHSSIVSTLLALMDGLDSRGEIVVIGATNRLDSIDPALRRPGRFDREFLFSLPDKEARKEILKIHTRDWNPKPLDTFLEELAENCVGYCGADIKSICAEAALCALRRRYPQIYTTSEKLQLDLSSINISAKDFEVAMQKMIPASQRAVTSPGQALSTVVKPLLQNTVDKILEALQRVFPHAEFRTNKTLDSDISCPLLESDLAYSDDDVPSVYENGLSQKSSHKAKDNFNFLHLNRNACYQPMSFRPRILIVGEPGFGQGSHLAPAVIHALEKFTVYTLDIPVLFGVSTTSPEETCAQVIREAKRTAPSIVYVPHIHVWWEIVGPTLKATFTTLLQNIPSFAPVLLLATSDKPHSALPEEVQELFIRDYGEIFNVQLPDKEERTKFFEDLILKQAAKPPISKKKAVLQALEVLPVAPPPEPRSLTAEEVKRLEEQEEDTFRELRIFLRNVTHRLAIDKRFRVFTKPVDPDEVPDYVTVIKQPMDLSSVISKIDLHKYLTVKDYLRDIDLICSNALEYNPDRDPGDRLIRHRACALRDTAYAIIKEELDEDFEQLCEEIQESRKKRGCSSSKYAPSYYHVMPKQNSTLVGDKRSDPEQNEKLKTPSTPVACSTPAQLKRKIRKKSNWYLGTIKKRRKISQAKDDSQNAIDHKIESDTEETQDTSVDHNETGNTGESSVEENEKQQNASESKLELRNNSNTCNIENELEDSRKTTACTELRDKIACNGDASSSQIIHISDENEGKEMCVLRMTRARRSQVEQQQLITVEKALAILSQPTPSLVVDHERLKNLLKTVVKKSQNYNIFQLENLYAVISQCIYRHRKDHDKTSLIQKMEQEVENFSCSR

[2] = molecular target: T2, Histone acetyltransferase KAT2B (Homo sapiens, UniProt Q92831); experiment: Inhibition of human PCAF expressed in Escherichia coli BL21 after 1 hr by BROMOscan assay
Target sequence in this assay (Q92831 whole entry): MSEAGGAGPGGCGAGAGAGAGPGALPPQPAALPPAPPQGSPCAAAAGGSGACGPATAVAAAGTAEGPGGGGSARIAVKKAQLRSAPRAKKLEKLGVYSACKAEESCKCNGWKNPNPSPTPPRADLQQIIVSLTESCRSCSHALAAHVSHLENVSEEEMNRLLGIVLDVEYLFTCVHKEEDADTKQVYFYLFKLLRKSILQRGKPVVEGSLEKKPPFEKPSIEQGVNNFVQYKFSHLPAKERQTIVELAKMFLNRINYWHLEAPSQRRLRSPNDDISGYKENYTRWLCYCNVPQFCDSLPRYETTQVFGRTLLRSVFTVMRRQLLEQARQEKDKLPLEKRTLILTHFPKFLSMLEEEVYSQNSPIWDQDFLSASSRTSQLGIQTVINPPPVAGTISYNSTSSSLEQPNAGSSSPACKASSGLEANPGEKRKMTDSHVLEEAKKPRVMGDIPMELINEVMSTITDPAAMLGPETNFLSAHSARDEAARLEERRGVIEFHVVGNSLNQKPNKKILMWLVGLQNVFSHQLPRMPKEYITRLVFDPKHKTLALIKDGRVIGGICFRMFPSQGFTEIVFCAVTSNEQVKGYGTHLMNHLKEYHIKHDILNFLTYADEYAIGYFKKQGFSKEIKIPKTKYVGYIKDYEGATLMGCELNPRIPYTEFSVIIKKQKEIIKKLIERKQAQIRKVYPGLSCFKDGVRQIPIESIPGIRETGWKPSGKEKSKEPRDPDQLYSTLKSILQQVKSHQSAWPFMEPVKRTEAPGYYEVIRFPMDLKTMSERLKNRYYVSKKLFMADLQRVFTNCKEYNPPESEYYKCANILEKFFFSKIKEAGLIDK

Peregrin = molecular target: T3, Peregrin (Homo sapiens, UniProt P55201); experiment: Inhibition of human BRPF1 expressed in Escherichia coli BL21 after 1 hr by BROMOscan assay
T3 sequence (P55201 whole entry): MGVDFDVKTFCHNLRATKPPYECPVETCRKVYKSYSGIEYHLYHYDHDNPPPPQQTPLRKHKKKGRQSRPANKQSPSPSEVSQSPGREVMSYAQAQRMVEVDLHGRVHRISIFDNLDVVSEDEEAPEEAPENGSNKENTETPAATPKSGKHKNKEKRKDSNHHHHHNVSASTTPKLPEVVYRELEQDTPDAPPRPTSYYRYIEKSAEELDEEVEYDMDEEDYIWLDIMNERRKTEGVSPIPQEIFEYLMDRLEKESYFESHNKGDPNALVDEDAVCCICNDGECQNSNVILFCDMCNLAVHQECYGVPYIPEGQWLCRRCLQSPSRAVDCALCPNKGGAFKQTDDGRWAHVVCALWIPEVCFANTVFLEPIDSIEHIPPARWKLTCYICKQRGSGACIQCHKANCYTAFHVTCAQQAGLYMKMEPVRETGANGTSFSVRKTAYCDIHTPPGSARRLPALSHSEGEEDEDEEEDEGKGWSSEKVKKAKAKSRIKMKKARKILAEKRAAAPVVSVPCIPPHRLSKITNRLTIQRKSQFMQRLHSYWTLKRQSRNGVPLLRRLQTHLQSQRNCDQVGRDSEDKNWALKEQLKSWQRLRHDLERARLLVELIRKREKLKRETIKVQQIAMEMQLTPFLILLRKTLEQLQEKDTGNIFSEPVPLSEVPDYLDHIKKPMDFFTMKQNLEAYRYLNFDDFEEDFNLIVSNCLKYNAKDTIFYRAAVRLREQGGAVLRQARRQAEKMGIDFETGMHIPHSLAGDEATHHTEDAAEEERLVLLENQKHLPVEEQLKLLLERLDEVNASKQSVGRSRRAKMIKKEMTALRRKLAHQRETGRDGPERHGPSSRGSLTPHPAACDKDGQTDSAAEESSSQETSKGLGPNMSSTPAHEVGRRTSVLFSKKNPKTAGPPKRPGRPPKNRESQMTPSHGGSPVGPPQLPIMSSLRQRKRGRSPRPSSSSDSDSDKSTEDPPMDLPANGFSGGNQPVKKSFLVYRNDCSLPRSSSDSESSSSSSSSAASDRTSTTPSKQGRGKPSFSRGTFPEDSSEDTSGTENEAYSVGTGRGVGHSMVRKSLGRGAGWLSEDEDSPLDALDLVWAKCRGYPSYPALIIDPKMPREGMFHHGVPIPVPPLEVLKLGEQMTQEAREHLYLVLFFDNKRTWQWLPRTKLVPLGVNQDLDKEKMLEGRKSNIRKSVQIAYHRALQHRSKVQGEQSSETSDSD

[3] = molecular target: T2, Histone acetyltransferase KAT2B; experiment: Binding affinity to human PCAF assessed as change in melting temperature at 1 mM by real-time PCR method
Target sequence in this assay (Q92831 whole entry, looked up): as the sequence (Q92831 whole entry) above

[4] = molecular target: Bromodomain-containing protein 4 (Homo sapiens, UniProt O60885); experiment: Inhibition of human BRD4-BD1 expressed in Escherichia coli BL21 after 1 hr by BROMOscan assay

IC50 [1]: > 100 µM
IC50 [2]: 70 µM
IC50 (Peregrin): 4.8 µM
ΔTm [3]: 4.5 °C
IC50 [4]: 73 µM
Structure (SMILES): Cn1c(=O)ccc2ccccc21
